In US20250018014A1, “METHOD FOR TREATING AND/OR PREVENTING REGNASE-1-RELATED DISEASE” (OSAKA UNIVERSITY, priority 2018, published 2025) one finds IC50 data, which are given here for 6 compounds.

Structures are written as SMILES. Residues, ends and D or L forms follow the SMILES beside them.

The target in one test is T1, ΔCTD_Reg1 (amino acids 1 to 546 of human Regnase-1) phosphorylation by TBK1 (Homo sapiens, UniProt Q5D1E8).
T1 construct: made in house; host or cells: Expi293 cells
T1 sequence (Q5D1E8 1-546): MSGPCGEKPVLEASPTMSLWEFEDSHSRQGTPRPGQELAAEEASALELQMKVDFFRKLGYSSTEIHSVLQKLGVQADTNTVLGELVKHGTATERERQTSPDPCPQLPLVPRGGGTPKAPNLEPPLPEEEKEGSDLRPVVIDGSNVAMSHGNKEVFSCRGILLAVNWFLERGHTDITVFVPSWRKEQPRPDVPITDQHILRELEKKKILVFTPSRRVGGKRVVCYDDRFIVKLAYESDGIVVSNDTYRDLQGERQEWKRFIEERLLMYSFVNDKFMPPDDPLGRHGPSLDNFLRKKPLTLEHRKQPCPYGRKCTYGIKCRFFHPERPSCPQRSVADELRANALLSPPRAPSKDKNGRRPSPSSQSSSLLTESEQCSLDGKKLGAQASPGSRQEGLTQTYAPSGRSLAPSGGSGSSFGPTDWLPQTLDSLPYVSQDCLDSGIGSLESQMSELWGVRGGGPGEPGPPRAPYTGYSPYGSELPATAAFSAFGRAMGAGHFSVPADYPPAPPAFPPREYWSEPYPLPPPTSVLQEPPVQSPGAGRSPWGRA
The experiment in a line: Regnase-1 phosphorylation inhibition by compounds (AlphaScreen), TBK1, CTD-deficient Regnase-1. It counts as biochemical. The settings on record: Table 13; phosphorylation by TBK1; read-out: Phosphorylation inhibition ΔCTD_Reg1, 50% inhibition concentration (TBK1). From the text: The full-length sequence of human Regnase-1 (UniProt ID: Q5D1E8) was used to prepare a construct having a FLAG tag on the N-terminal side and a recognition sequence for biotin ligase BirA on the C-terminal side (FL_Reg1) as a target protein. The above-mentioned Regnase-1 was expressed in mammalian Expi293 cells, purified with FLAG M2 agarose, and isolated by gel filtration chromatography. When biotinylation was required, methods from nonpatent documents (BMC biotechnology, 2008,8,41; and Protein Science, 1999,8,921-929) were used.
(§1) Among the full-length human Regnase-1 sequence, the 1st to 546th amino acid sequence was prepared and made into a construct having a FLAG tag on the N-terminal side and a biotin ligase BirA recognition sequence on the C-terminal side (herein, a Regnase-1 lacking the C-terminal domain of Regnase-1 (amino acids 547 to 599 in the case of SEQ ID NO: 2) is referred to as “ΔCTD_Reg1”. “ΔCTD_Reg1” is different from “Regnase-1ΔCTD”, which is a C-terminal domain deletion variant resulting from a frameshift mutation caused by a 1 bp deletion at codon 517, as prepared in Example 13). In addition, the sequence from amino acids 301 to 599 of the full-length human Regnase-1 sequence was designated as C-terminal Regnase-1, and a construct having a FLAG tag on the N-terminal side and a recognition sequence for biotin ligase BirA on the C-terminal side was prepared (Reg1_301-599). The above-mentioned Regnase-1 was expressed in mammalian Expi293 cells, purified with FLAG M2 agarose, and isolated by gel filtration chromatography. When biotinylation was required, methods of nonpatent documents (BMC biotechnology, 2008,8,41; and Protein Science, 1999,8,921-929) were used.
(§2) Using Kinase assay buffer III (manufactured by SignalChem) supplemented with 2 mM DTT, 100 μM sodium vanadate, and 2 mM manganese chloride, kinase (IKKβ (manufactured by SignalChem) or TBK1 (manufactured by SignalChem)) and Regnase-1 were reacted in the presence of 10 μM ATP at room temperature for 2 hours to perform a phosphorylation reaction.
(§3) Phosphorylated Regnase-1 was detected by the AlphaScreen system. After each of the above-mentioned phosphorylated Regnase-1 antibodies was added and reacted at room temperature for one hour, anti-FLAG AlphaLISA Acceptor Beads (manufactured by PerkinElmer) and Protein A AlphaScreen Donor Beads (manufactured by PerkinElmer) were added, and EnVision (manufactured by PerkinElmer) was used to measure the excited luminescence. As a result, phosphorylated Regnase-1 produced by the phosphorylation reaction by kinase was specifically detected, and signals were confirmed to be enhanced in a manner dependent on Regnase-1 and kinase concentrations (FIG. 24).
(§4) After mixing 2 nM of the above-mentioned Regnase-1 and the compound, phosphorylated Regnase-1 produced by the phosphorylation reaction was detected by the AlphaScreen system. As the results, the inhibition rate was calculated from the signals obtained when adding the compound at each concentration, by defining the signal obtained with Regnase-1 alone to be 100% inhibition rate, and the signal obtained when the same amount of solvent (DMSO) is added in place of the compound as 0% inhibition rate. The 50% inhibition concentration (μM) was calculated from the obtained dose response curve (Table 11).
(In general: Bead proximity is the source of the signal in Alpha formats.)
As for `CC[C@H](C)[C@@H]1NC(=O)[C@H](CC(=O)O)NC(=O)[C@H](C)N(C)C(=O)C[C@@H](C(=O)N2CCCC2)NC(=O)[C@H](Cc2ccc(O)cc2)NC(=O)[C@H](CC(=O)O)NC(=O)[C@H](Cc2c[nH]c3ccccc23)NC(=O)[C@H](Cc2ccc(O)cc2)NC(=O)[C@H](CC(=O)O)NC(=O)[C@H](Cc2ccccc2)NC(=O)[C@H](Cc2c[nH]c3ccccc23)NC1=O` [PP18] (HELM PEPTIDE1{[meA].D.I.W.F.D.Y.W.D.Y.D.[C1CCN([*:1])C1]}$PEPTIDE1,PEPTIDE1,1:R1-11:R3$$$V2.0), the IC50 was 1.8 µM. The same measure, in the same setting: then `CC[C@H](C)[C@@H]1NC(=O)[C@H](Cc2c[nH]c3ccccc23)NC(=O)[C@@H](Cc2ccccc2)NC(=O)[C@H](CCCCN)NC(=O)[C@H](C)N(C)C(=O)C[C@@H](C(=O)N2CCCC2)NC(=O)[C@H](CCC(=O)O)NC(=O)[C@H](Cc2ccccc2)NC(=O)[C@H](CO)NC(=O)[C@H](Cc2c[nH]cn2)NC(=O)[C@H](Cc2c[nH]cn2)NC1=O` [PP20] (HELM PEPTIDE1{[meA].K.[dF].W.I.H.H.S.F.E.D.[C1CCN([*:1])C1]}$PEPTIDE1,PEPTIDE1,1:R1-11:R3$$$V2.0), with above 62.1 µM.

Another test concerns the target T2, Reg1_301-599 (amino acids 301-599 of human Regnase-1) phosphorylation by TBK1 (Homo sapiens, UniProt Q5D1E8).
T2 construct: made in house; host or cells: Expi293 cells
T2 sequence (Q5D1E8 301-599): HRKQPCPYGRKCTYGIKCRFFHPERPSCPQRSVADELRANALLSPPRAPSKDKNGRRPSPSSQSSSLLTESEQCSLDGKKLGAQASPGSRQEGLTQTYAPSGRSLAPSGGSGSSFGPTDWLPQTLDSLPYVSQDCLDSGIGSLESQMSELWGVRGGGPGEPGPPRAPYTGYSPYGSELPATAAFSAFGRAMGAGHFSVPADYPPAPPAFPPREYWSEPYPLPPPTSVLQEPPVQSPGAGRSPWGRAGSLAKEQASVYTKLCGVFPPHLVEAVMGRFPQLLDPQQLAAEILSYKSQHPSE
The experiment in a line: Regnase-1 phosphorylation inhibition by compounds (AlphaScreen), TBK1, C-terminal Regnase-1. It counts as biochemical. The settings on record: Table 13, read-out: Phosphorylation inhibition Reg1_301-599, 50% inhibition concentration (TBK1). The method, then: as §1, §2, §3, §4
For `CC[C@H](C)[C@@H]1NC(=O)[C@H](Cc2c[nH]c3ccccc23)NC(=O)[C@@H](Cc2ccccc2)NC(=O)[C@H](CCCCN)NC(=O)[C@H](C)N(C)C(=O)C[C@@H](C(=O)N2CCCC2)NC(=O)[C@H](CCC(=O)O)NC(=O)[C@H](Cc2ccccc2)NC(=O)[C@H](CO)NC(=O)[C@H](Cc2c[nH]cn2)NC(=O)[C@H](Cc2c[nH]cn2)NC1=O` [PP20] (HELM PEPTIDE1{[meA].K.[dF].W.I.H.H.S.F.E.D.[C1CCN([*:1])C1]}$PEPTIDE1,PEPTIDE1,1:R1-11:R3$$$V2.0), the IC50 is above 62.1 µM. Still for that read-out and setting: under `CC[C@H](C)[C@@H]1NC(=O)[C@H](Cc2c[nH]c3ccccc23)NC(=O)[C@H](CCC(N)=O)NC(=O)[C@H](Cc2ccc(O)cc2)NC(=O)[C@H](C(C)C)NC(=O)[C@H](C)NC(=O)[C@H](Cc2ccc(O)cc2)NC(=O)[C@H](CCCNC(=N)N)NC(=O)[C@H](C)N(C)C(=O)C[C@@H](C(=O)N2CCCC2)NC(=O)[C@@H]2CCCN2C(=O)[C@H](Cc2ccc(O)cc2)NC1=O` [PP12] (HELM PEPTIDE1{[meA].R.Y.A.V.Y.Q.W.I.Y.P.D.[C1CCN([*:1])C1]}$PEPTIDE1,PEPTIDE1,1:R1-12:R3$$$V2.0) stands 19.6 µM; under `CC[C@H](C)[C@@H]1NC(=O)[C@H](Cc2c[nH]c3ccccc23)NC(=O)[C@H](CCCNC(=N)N)NC(=O)[C@H](Cc2ccccc2)NC(=O)[C@H](CCC(N)=O)NC(=O)[C@H](C)NC(=O)[C@H](Cc2ccccc2)NC(=O)[C@H](CCCCN)NC(=O)[C@H](C)N(C)C(=O)C[C@@H](C(=O)N2CCCC2)NC(=O)[C@@H]2CCCN2C(=O)[C@H](Cc2ccc(O)cc2)NC1=O` [PP11] (HELM PEPTIDE1{[meA].K.F.A.Q.F.R.W.I.Y.P.D.[C1CCN([*:1])C1]}$PEPTIDE1,PEPTIDE1,1:R1-12:R3$$$V2.0), above 62.1 µM; under `CC[C@H](C)[C@@H]1NC(=O)[C@H](CC(N)=O)NC(=O)[C@H](Cc2ccc(O)cc2)NC(=O)[C@H](Cc2c[nH]c3ccccc23)NC(=O)[C@H](CO)NC(=O)[C@H](CC(N)=O)NC(=O)[C@H](CO)NC(=O)[C@H](Cc2ccccc2)NC(=O)[C@H](CC(N)=O)NC(=O)[C@H](C)N(C)C(=O)C[C@@H](C(=O)N2CCCC2)NC(=O)[C@H](Cc2c[nH]c3ccccc23)NC1=O` [PP16] (HELM PEPTIDE1{[meA].N.F.S.N.S.W.Y.N.I.W.D.[C1CCN([*:1])C1]}$PEPTIDE1,PEPTIDE1,1:R1-12:R3$$$V2.0), above 62.1 µM. Still for that read-out and setting: then `CC[C@H](C)[C@@H]1NC(=O)[C@H](CCCCN)NC(=O)[C@H](Cc2ccc(O)cc2)NC(=O)[C@H](Cc2c[nH]c3ccccc23)NC(=O)[C@H](CO)NC(=O)[C@H](CC(N)=O)NC(=O)[C@H](C)N(C)C(=O)C[C@@H](C(=O)N2CCCC2)NC(=O)[C@H](CC(C)C)NC(=O)CNC(=O)[C@H](Cc2c[nH]c3ccccc23)NC1=O` [PP21] (HELM PEPTIDE1{[meA].N.S.W.Y.K.I.W.G.L.D.[C1CCN([*:1])C1]}$PEPTIDE1,PEPTIDE1,1:R1-11:R3$$$V2.0), with 17 µM.
